Series [1] can be described thus: Stability study of misoprostol oil at 25° C. (HPLC content, physical form). In kind it is physicochemical. As to the method:
Misoprostol stability was tested over a period of 6 months. The misoprostol tested was the commercially available misoprostol in the form of an oil. Misoprostol was stored at a temperature of 25° C., and misoprostol content measured using HPLC at 0, 2, 4, 8 weeks and 3 and 6 months.

A short description of series [2]: Comparative stability at 25° C. of dinoprostone bulk drug crystal and dinoprostone in polyurethane hydrogel. In kind it is physicochemical. The text has this: Measurements are taken at 0, 1, 2, 3, and 6 months. The following results are for comparative purposes only and are not intended to form part of the present invention.

The results in this text go back to US8709482B2, “Stabilised prostaglandin composition” (Ferring B.V., priority 2005, dated 2014).

SMILES strings stand for the structures.

As for `CCCCC(C)(O)C/C=C/[C@H]1[C@H](O)CC(=O)[C@@H]1CCCCCCC(=O)OC` (mixture of isomers) [Misoprostol, (11α,13E)-(±)-11,16-Dihydroxy-16-methyl-9-oxoprost-13-en-1-oic acid methyl ester], the Misoprostol content is 101.59 % w/w in series [1] (0); 99.61 % w/w in series [1] (2 w); 93.63 % w/w in series [1] (3 m); 98.59 % w/w in series [1] (4 w); 57.07 % w/w in series [1] (6 m); 96.87 % w/w in series [1] (8 w). The Physical form entry in series [1] (0) was “Colourless”; in series [1] (2 w), “Colourless”; in series [1] (3 m), “Straw”; in series [1] (4 w) it was “Colourless”; in series [1] (6 m), “Yellow”; in series [1] (8 w) it was “Clear”. For the same compound, the “Stability (FIG. 1)” value in series [1] (in the absence of polyurethane hydrogel) is “degrades with time”.

Consider `CCCCC[C@H](O)/C=C/[C@H]1[C@H](O)CC(=O)[C@@H]1C/C=C\CCCC(=O)O` [Dinoprostone], for which the “% potency” value in series [2] (0 months) amounted to 100 % potency; in series [2] (1 month), 96 % potency; in series [2] (3 months), 89 % potency; in series [2] (6 months) it was 75 % potency.
